Assay results: PubChem BioAssay (NCI)
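Interpolation was linear, between the two tested concentrations surrounding the appropriate level; five concentrations were tested over 48 hours in 96-well plates. GI50 = concentration required for 50% inhibition of growth. TGI: total growth inhibition.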

Key:
Assay in all cases: NCI-60 cell line screen, 48 h
U251 CNS = test system: U251 CNS
TK-10 renal = test system: TK-10 renal
MDA-MB-435 = test system: MDA-MB-435
HT29 colon = test system: HT29 colon
HCT-116 colon = test system: HCT-116 colon
BT-549 breast = test system: BT-549 breast
SK-MEL-2 melanoma = test system: SK-MEL-2 melanoma
ACHN renal = test system: ACHN renal
HOP-92 NSCLC = test system: HOP-92 NSCLC
OVCAR-3 ovarian = test system: OVCAR-3 ovarian
CCRF-CEM leukemia = test system: CCRF-CEM leukemia
KM12 colon = test system: KM12 colon
SK-OV-3 ovarian = test system: SK-OV-3 ovarian
HS 578T breast = test system: HS 578T breast
MDA-MB-231 breast = test system: MDA-MB-231 breast
SNB-19 CNS = test system: SNB-19 CNS
OVCAR-4 ovarian = test system: OVCAR-4 ovarian
SW-620 colon = test system: SW-620 colon
MCF7 breast = test system: MCF7 breast
T-47D breast = test system: T-47D breast
LOX IMVI melanoma = test system: LOX IMVI melanoma
EKVX NSCLC = test system: EKVX NSCLC
HCC-2998 colon = test system: HCC-2998 colon
A549 NSCLC = test system: A549 NSCLC
DU-145 prostate = test system: DU-145 prostate
NCI/ADR-RES ovarian = test system: NCI/ADR-RES ovarian

## O=C1c2ccccc2-c2c1c1ccccc1c(=O)n2CCN1CCNCC1
U251 CNS
  TGI: 3.66 µM
TK-10 renal
  GI50: 2.21 µM
  TGI: 11.3 µM
MDA-MB-435
  GI50: 1.97 µM
  TGI: 4.2 µM
HT29 colon
  GI50: 1.58 µM
  TGI: 8.02 µM
HCT-116 colon
  GI50: 0.573 µM
  TGI: 3.97 µM
BT-549 breast
  GI50: 4.96 µM
  TGI: 17.8 µM
SK-MEL-2 melanoma
  GI50: 12.7 µM
  TGI: 36.2 µM
ACHN renal
  GI50: 0.316 µM
  TGI: 1.3 µM
HOP-92 NSCLC
  GI50: 4.44 µM
  TGI: 17.4 µM
OVCAR-3 ovarian
  GI50: 1.12 µM
  TGI: 6.93 µM
CCRF-CEM leukemia
  GI50: 0.671 µM
  TGI: 4.26 µM
KM12 colon
  GI50: 1.24 µM
  TGI: 3.47 µM
SK-OV-3 ovarian
  GI50: 1.73 µM
  TGI: 6.26 µM
HS 578T breast
  GI50: 3.74 µM
  TGI: 26.5 µM
MDA-MB-231 breast
  GI50: 2.45 µM
  TGI: 10.7 µM
SNB-19 CNS
  GI50: 1.32 µM
  TGI: 4.9 µM
OVCAR-4 ovarian
  GI50: 10.4 µM
  TGI: 33 µM
SW-620 colon
  GI50: 1.47 µM
  TGI: 7.28 µM
MCF7 breast
  GI50: 0.836 µM
  TGI: 17.5 µM
T-47D breast
  GI50: 2.4 µM
  TGI: 16.2 µM
LOX IMVI melanoma
  GI50: 0.735 µM
  TGI: 2.99 µM
EKVX NSCLC
  GI50: 7.24 µM
  TGI: 26.4 µM
HCC-2998 colon
  GI50: 0.785 µM
  TGI: 5.01 µM
A549 NSCLC
  GI50: 0.576 µM
  TGI: 3.6 µM
DU-145 prostate
  GI50: 3.11 µM
  TGI: 8.79 µM
NCI/ADR-RES ovarian
  GI50: 2.55 µM
  TGI: 11.4 µM
